# Experimental data reported in ChEMBL document CHEMBL1123138 (J Med Chem, 1985).
# System: Rattus norvegicus
# Experiment: Effective dose required to inhibit sorbitol accumulation in sciatic nerves of streptozotocinized rats administered perorally
# Format: functional, Sciatic nerve
row,Compound,ED50 [mg/kg]
1,O=C1NC(=O)[C@@]2(CCOc3ccc(F)cc32)N1 (stereo in doubt; form 1) [SORBINIL],0.25
2,O=C1NC(=O)[C@@]2(CCOc3ccc(F)cc32)N1 (stereo in doubt; form 2) [SORBINIL],25
